Laboratory results published in publication PMC5068747, “Using C. elegans Forward and Reverse Genetics to Identify New Compounds with Anthelmintic Activity” (PLoS Neglected Tropical Diseases, 2016).
Where “and” joins values, the source holds several entries; their conditions need not be identical. Equal values may be shown once.

Tests used:
[1] = test system: C. elegans RB2119 (acr-23(ok2804), monepantel-resistant); test: IC50 on amino-acetonitrile resistant C. elegans strain; assay type: in vivo, Caenorhabditis elegans; conditions: Caenorhabditis elegans, 120 h; 5 days exposure, 2 L4 per well, three biological replicates; read-out: IC50, strain RB2119 (amino-acetonitriles)
[2] = test system: S. cerevisiae yeast strain BY4743; test: Yeast growth rate (OD600) dose titration; assay type: cell-based; conditions: Saccharomyces cerevisiae; BY4743, YPD, growth rate reduced by 50%
Method: The S. cerevisiae yeast strain BY4743 (MATa/α his3Δ1/his3Δ1 leu2Δ0/leu2Δ0 LYS2/lys2Δ0 met15Δ0/MET15 ura3Δ0/ura3Δ0) was used for all yeast experiments and was grown using yeast extract peptone dextrose (YPD) media at pH 7 [52]. BY4743 was grown overnight to initial log phase and was then grown with the compound identified in the C. elegans assay. The growth rate was quantified by continuously monitoring the optical density of the liquid yeast growth at OD600. The compound was screened in a dose-titration in YPD as described. The IC50 was the concentration required to reduce the growth rate or Average G value by 50% compared to a vehicle control (2% DMSO).

[3] = test system: Human embryonic kidney (HEK293) cells; test: HEK293 viability, MTT colorimetric assay; assay type: cell-based; conditions: Homo sapiens, read-out: Mammalian IC50
Method: Potential anthelmintic compounds identified from primary screening were further tested against mammalian cells and yeast to determine whether they had deleterious effects in those organisms. Human embryonic kidney (HEK293) cells were grown in Dulbecco’s Modified Eagle’s Medium (DMEM; Sigma) containing 5% fetal bovine serum (FBS; Sigma) in 96-well plates tissue culture plates. Compounds were added 24h post-plating at 10, 30, 100, or 300 μM final concentrations. Dimethyl sulfoxide (DMSO) was used as a negative control at 0.1%. Cells were treated for 24 or 48 hours, after which time viability was assessed using a 3-(4,5-dimethylthiazol-2-yl)-2,5-diphenyltetrazolium bromide (MTT) colorimetric assay. Percent viability was determined by comparing treatment values to DMSO control values.

[4] = test system: C. elegans pink-1 mutant strains; test: Resistance of pink-1 mutant strains (MMP / knockout) to CID 2747322; assay type: in vivo, Caenorhabditis elegans
C. briggsae = test: Dosage curve on C. briggsae; assay type: in vivo; conditions: Caenorhabditis briggsae, 120 h; two L4 per well, five days of exposure
Text: Supplementary file pntd.0005058.s004.pdf: S4 Fig Dosage curve for effects on C. briggsae of CID 2747322. Two L4 C. briggsae animals were placed into each well of a 96-well pate for five days of exposure to CID 2747322. […] (PDF) Click here for additional data file.

[5] = test system: C. elegans CB3474 (ben-1(e1880), benomyl resistant); test: IC50 on benzimidazole resistant C. elegans strain; assay type: in vivo, Caenorhabditis elegans; conditions: Caenorhabditis elegans, 120 h; 5 days exposure, 2 L4 per well, three biological replicates
Meloidogyne hapla J2 = test: Immobilization of infective second-stage juveniles (J2) of Meloidogyne hapla; assay type: in vivo
Method: A laboratory population of the plant-parasitic northern root-knot nematode, Meloidogyne hapla, was initiated by inoculating a tomato seedling growing in a 500 ml pot of 50:50 pasteurized sandy soil:peat with ~100 infective second-stage juveniles (J2) extracted from infested soil from a vineyard in the Okanagan Valley. The population was thereafter reared on tomato under greenhouse conditions. Prior to experimentation, galled roots were removed from heavily infested tomato plants, washed over a sieve with tap water, and then placed on Baermann funnels. J2 hatchings over the first three days were collected and suspended in tap water at a concentration of 100 J2/ml. Replicate 24-well cell culture plates were seeded with 0.2 ml of J2 suspension. Dilutions of CID 2747322 in distilled water were then added to the wells to result in four replicate wells of each of six concentrations in each plate. Concentrations tested spanned 0 to 320 μM and 0 to 160 μM in the two separate runs of the experiment. Nematodes were observed using an inverted microscope at 40X. On each observation date, a transect through each well was observed and J2 within the transect were scored as mobile or immobile. J2 that had taken on a straight posture were scored as immobile. Recently hatched J2 of M. hapla normally move continuously but slowly and always have a curved posture.
Supplementary file pntd.0005058.s005.pdf: S5 Fig Dosage curve for effects on Meloidogyne hapla of CID 2747322. The percentage of immobilization of infective juveniles of Meloidogyne hapla was measure after ten days of exposure to the compound. Data are from two separate trials testing 0–320 and 0–160 μM concentration ranges, respectively, with each point representing the mean of twelve test wells. (PDF) Click here for additional data file.

## COc1ccc(OCCNC(=O)c2ccccc2C(F)(F)F)cc1 [CID 2747322, N-[2-(4-methoxyphenoxy)ethyl]-2-(trifluoromethyl)benzamide]
[1]
  IC50: 5 µM
[2]
  IC50: > 1000 µM
[3]
  IC50: 171 µM
[4]; strain RB2547, pink-1 Knockout
  Resistance: none
[4]; strain VC20205, pink-1 W562stop
  Resistance: none
[4]; strain VC20423, pink-1 V373I
  Resistance: none
[4]; strain VC20470, pink-1 E162K
  Resistance: none
[4]; strain VC20521, pink-1 P226S
  Resistance: sensitive
[4]; strain VC20546, pink-1 P32L
  Resistance: sensitive
[4]; strain VC20588, pink-1 A628T
  Resistance: none
[4]; strain VC30104, pink-1 Knockout
  Resistance: none
[4]; strain VC30182, pink-1 G415E
  Resistance: none
[4]; strain VC40096, pink-1 M1I
  Resistance: none
[4]; strain VC40194, pink-1 D378N
  Resistance: resistant
[4]; strain VC40287, pink-1 S341N
  Resistance: resistant
[4]; strain VC40373, pink-1 A365T
  Resistance: none
[4]; strain VC40385, pink-1 L232F
  Resistance: resistant
[4]; strain VC40392, pink-1 T65I
  Resistance: none
[4]; strain VC40527, pink-1 V334I
  Resistance: none
[4]; strain VC40694, pink-1 M556L
  Resistance: resistant
[4]; strain VC40738, pink-1 E353K
  Resistance: none
[4]; strain VC41008, pink-1 L180F
  Resistance: resistant
C. briggsae
  IC50: 16 µM
[5]
  IC50: 4 µM
Meloidogyne hapla J2; 160 and 320 μM, 24 hours after exposure initiation, increased through day 10
  immobilization of M. hapla J2: Immobilization was observed
Meloidogyne hapla J2; Meloidogyne hapla, 240 h, 10 day exposure
  IC50: 129 µM and 44 µg/mL
Meloidogyne hapla J2; extended exposure
  survival of M. hapla: die after extended exposure
